Laboratory results reported in patent publication US12643935B2, “PD-L1 binding peptides” (UNIVERSITY OF SOUTHERN CALIFORNIA, priority 2020, dated 2026).
Entries after “also recorded” stand apart in the source; their conditions may differ.

How the values were obtained:
[1] = Serum stability of ROX-SPAM by HPLC; format: in vitro ADME; details: 25% human serum, 37° C., up to five hours
Description: We first tested SPAM peptide stability by performing an HPLC-based assay to test if SPAM is degraded by human serum. We incubated ROX-labeled SPAM with 25% human serum at 37° C., took aliquots at different time points, then analyzed the products using HPLC.
At times 0, 15, 30, 120 and 300 min, 40 μL was removed and protein precipitated by the addition of 80 μL ethanol. Samples were centrifuged for 10 min at 16,000×g and the supernatant removed for HPLC analysis. A total of 100 μL volume was injected in a HPLC gradient of 10^−95% Buffer B over 15 minutes (Buffer A: dH2O with 0.1% (v/v) TFA, Buffer B: CH3CN+0.1% (v/v) TFA). Detection was performed at 570 nm.

hPD-L1 [2] = target: T1, hPD-L1 (Homo sapiens, UniProt Q9NZQ7); assay: Radiolabeled [35S] peptide binding assay on immobilized hPD-L1; parameters: designed from A18 to T239 with a methionine added to the N-terminus; hexahistidine tag (C); made in house; details: hPD-L1 on streptavidin agarose
Description: (§1) [^35S]-labeled peptides were translated as described above by including 2 μCi labeled methionine (Perkin Elmer) per 10 pmol of template in the translation reaction. Each peptide was tested with a […] (for X9-library derived peptides) (SEQ ID NO: 11) or a […] (for X17-library derived peptides) (SEQ ID NO: 12) C-terminal sequence. […] The supernatant was removed and was counted. The beads were subsequently washed three times with 1 mL of blocking buffer and the washes were also counted. Finally, the beads were resuspended in 1 mL of blocking buffer and were counted separately. The ratio of the counts remaining on the beads to the total counts added to the binding reaction (the sum of the counts for supernatant, washes, and beads) was calculated to determine the percent bound.
Target sequence in this assay (Q9NZQ7 with tags, fused parts or gaps): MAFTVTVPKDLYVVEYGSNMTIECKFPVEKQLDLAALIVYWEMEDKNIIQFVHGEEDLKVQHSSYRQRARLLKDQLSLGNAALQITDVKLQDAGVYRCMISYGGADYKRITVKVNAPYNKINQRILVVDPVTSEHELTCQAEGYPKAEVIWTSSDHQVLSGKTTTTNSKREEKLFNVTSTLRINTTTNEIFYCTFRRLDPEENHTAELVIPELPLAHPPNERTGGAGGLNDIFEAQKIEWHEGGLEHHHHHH

hPD-L1 [3] = target: T1, hPD-L1; assay: Radiolabeled [35S] peptide binding assay on glycosylated hPD-L1*; parameters: The hPD-L1* vector included amino acids A18-T239, an Avi Tag and a hexahistidine tag; hexahistidine tag; made in house; host or cells: Expi293F
Description: SPAM Peptide Selectively Binds to hPD-L1. SPAM was also tested for binding specificity towards mouse PD-L1 (mPD-L1) and human PD-L2 (hPD-L2) using radioactive binding assays. SPAM peptide mRNA was translated in vitro in the presence of [^35S]-methionine to generate [^35S]-labeled SPAM peptide.
as §1
Target sequence in this assay (Q9NZQ7 18-239): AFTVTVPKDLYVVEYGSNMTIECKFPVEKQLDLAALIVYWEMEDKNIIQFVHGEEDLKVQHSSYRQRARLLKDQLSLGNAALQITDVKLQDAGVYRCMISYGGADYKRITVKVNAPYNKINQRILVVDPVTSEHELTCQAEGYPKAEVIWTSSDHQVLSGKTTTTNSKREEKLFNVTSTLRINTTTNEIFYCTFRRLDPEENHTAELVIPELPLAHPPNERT

hPD-L1/mPD-1 interaction = target: T2, hPD-L1/mPD-1 interaction (Homo sapiens, UniProt Q9NZQ7); assay: ELISA/IP assay of hPD-L1/mPD-1 interaction; format: biochemical; details: 10 μM SPAM
T2 construct: designed from A18 to T239 with a methionine added to the N-terminus; hexahistidine tag (C); made in house; host or cells: E. coli BL21 (DE3)
Description: An ELISA-based activity assay was employed to measure the potency of SPAM peptide inhibition of the hPD-L1/PD-1 interaction (FIG. 4C-D). In this assay, biotinylated hPD-L1 was immobilized on streptavidin magnetic beads and incubated with various concentrations of SPAM peptide, followed by incubation with HA-tagged mPD-1 and detection with anti-HA secondary antibody.
For ELISA/IP assays, 20 L of MyOne™ Streptavidin T1 magnetic beads Dynabeads™ (Thermo Fisher Scientific) were loaded with 100 nM biotinylated hPD-L1 in assay buffer (20 mM HEPES-KOH pH 7.5, 150 mM NaCl, 0.2% (v/v) Tween-20, 1 mg/mL BSA and 50 μg/mL tRNA) at 4° C. The beads were subsequently washed and incubated with either DMSO or different concentrations of SPAM peptide (0.1, 1 or 10 μM) in the assay buffer for 1 h at 4° C. followed by adding HA-tagged mPD-1 (100 nM) for 1 h at 4° C. The samples were then washed and incubated with a 1:5,000 dilution of HRP conjugated anti-HA antibody (Pierce HA Antibody, Rockford. Il, USA) for 1 h at 4° C. The beads were washed again and developed with TMB Substrate Kit (Thermo Scientific) for 30 minutes and the reactions stopped by adding 100 L of […] sulfuric acid. The absorbance at 450 nm was measured on a Biotek Synergy H1 Hybrid Multi-Mode Microplate Reader.

[4] = target: T3, CHO-mPD-L1 cells which express mPD-L1 (Mus musculus, UniProt Q9EP73); assay: Antibody competition by flow cytometry on CHO-mPD-L1 cells; format: cell-based; details: pre-treatment 0-20 μM, 50 nM antibody
T3 construct: expressed in transfected cells; host or cells: CHO
Description: We performed similar experiments with CHO-mPD-L1 cells which express mPD-L1 to determine if this effect was specific to hPD-L1 expression. We have developed two cross-reactive anti-hPD-L1/mPD-L1 antibodies, 16373 and 16377. These antibodies were labeled with Fluorescein, titrated against CHO-hPD-L1 and CHO-mPD-L1 cells (FIG. 12B-C) and subjected to competition experiments as described above.
The cells were washed once with cold serum free DMEM and incubated with 1 nM FAM-Atezolizumab, 10 nM FAM-Avelumab, 50 nM FAM-16373, or 50 nM FAM-16377 in serum free DMEM at 4° C. for 30 min. Cells were then washed three times with cold serum free DMEM. Cells were subsequently processed by flow cytometry with a BD FACSCalibur system using the FL1 channel. FlowJo v10.1 was used to gate to the major population and median FL1 fluorescence reported.

T2 sequence (Q9NZQ7 with tags, fused parts or gaps): as the sequence (Q9NZQ7 with tags, fused parts or gaps) above
T3 sequence (Q9EP73 19-290): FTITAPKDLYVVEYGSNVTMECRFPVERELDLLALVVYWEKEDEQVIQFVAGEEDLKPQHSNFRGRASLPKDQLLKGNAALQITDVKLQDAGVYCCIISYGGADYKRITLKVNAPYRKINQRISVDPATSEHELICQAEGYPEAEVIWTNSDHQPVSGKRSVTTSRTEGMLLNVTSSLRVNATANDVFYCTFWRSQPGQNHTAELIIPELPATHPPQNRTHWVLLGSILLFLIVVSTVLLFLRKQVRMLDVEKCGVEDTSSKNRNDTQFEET

In the case of `C#CC[C@H](NC(=O)CNC(=O)[C@H](CO)NC(=O)[C@H](C)NC(=O)[C@H](Cc1ccc(O)cc1)NC(=O)[C@H](Cc1c[nH]cn1)NC(=O)[C@H](CC(C)C)NC(=O)[C@@H](NC(=O)[C@H](Cc1c[nH]c2ccccc12)NC(=O)[C@H](Cc1ccccc1)NC(=O)[C@H](CCCCN)NC(=O)[C@H](CC(N)=O)NC(=O)[C@H](CC(C)C)NC(=O)[C@@H](NC(=O)[C@H](Cc1c[nH]cn1)NC(=O)[C@H](CC(=O)O)NC(=O)[C@H](CC(C)C)NC(=O)[C@H](Cc1ccccc1)NC(=O)[C@@H](NC(=O)[C@@H]1CCCN1C(=O)[C@@H](N)CCSC)[C@@H](C)CC)[C@@H](C)CC)[C@@H](C)CC)C(N)=O` (stereo in doubt) [SPAM], the “degradation in human serum (HPLC)” value [1] is reported as “stable”, the “[35S]-labeled peptide pull-down by immobilized hPD-L1” value (hPD-L1 [2]) is reported as “efficiently pulled-down” and the “[35S]-labeled peptide capture by hPD-L1*” value (hPD-L1 [3]) is reported as “captured”. For the same compound, the “inhibition of mPD-1 binding to hPD-L1” value (hPD-L1/mPD-1 interaction) was “almost completely disrupted; also recorded: almost completely inhibits” and the “blocking of Fluorescein-16373 and Fluorescein-16377 in CHO-mPD-L1 cells” value [4] was “blocking was absent”.
